Ends that are not written are not given here.
Tested on: cathepsins B, H, and S
Conditions: pH 5

| Molecule | Peptides detected on MALDI after digesting synthetic epitope with cathepsins |
| --- | --- |
| CC(C)C[C@H](NC(=O)[C@H](CCCCN)NC(=O)[C@H](CC(C)C)NC(=O)[C@@H](NC(=O)[C@H](CC(N)=O)NC(=O)[C@H](CCC(N)=O)NC(=O)[C@H](CCCCN)NC(=O)[C@@H](NC(=O)[C@H](Cc1ccc(O)cc1)NC(=O)[C@H](CCCCN)NC(=O)[C@@H]1CCCN1)C(C)C)[C@@H](C)O)C(=O)N[C@@H](C)C(=O)N[C@H](C(=O)O)[C@@H](C)O [HA(306–318)] | PKYVKQNTLK (m/z 1218 Da) |
| NRERRGIALDGKIKHE [hSA(291–306)] | NRERRGIALDGKIKHE (m/z 1892 Da) NRERRGIALDGKIK (m/z 1627 Da) |

From publication PMC4241505 (Nature communications, 2014)
